The test system of experiment [1] is NIH3T3 cells transformed with sis oncogene. Put plainly: Cell number / cell proliferation of transformed cells (hemocytometer). The following applies: for Cell number: 2 days after the incubation; for Percentage of increase: 2 days, untreated = 100. Format: cell-based. The protocol: (§1) The employed culture solution was prepared by adding 9.5 g of DALBECCO'S EAGLE MEM medium (made by NISSUI SEIYAKU CO., LTD.) and 20 ml of 7% sodium bicarbonate to 1 l of distilled water and then adding fetal bovine serum (made by Flow Laboratories, Inc., U.S.A.) to be 10% by volume at the final concentration.
(§2) To each well of a 12-well plastic dish made by Flow Laboratories, Inc., 2 ml of the above-mentioned culture solution, 2×10^4 cells/ml of NIH3T3 cells transformed with sis oncogene (provided by National Cancer Institute of the U.S.; Science, 218, 1131 (1982)) and each test compound (RF-1023-A or RF-1023-B) in each concentration (5 to 400 ng/ml) were added and cultured at 37° C. in 5% CO2 incubator. Twenty-four hours later the morphology of the cells was observed and detransformation activity (activity for inhibiting transformation of NIH3T3 cells transformed with the oncogene and returning to normal flat morphology of cells) was estimated. Two days after the incubation, cells subjected to the medium containing RF-1023-A were dispersed with 0.05% trypsin, and the cell number was measured by means of hemocytometer.

For experiment [2] the test system is unchanged. Put plainly: Detransformation activity (return of transformed cells to normal flat morphology). Type of experiment: cell-based. The procedure: as §1, §2
[3] abbreviates: 24 hours, lowest concentration tested.

Molecules are shown by their SMILES. Where a SMILES comes first, the peptide text is derived from it. [ ]: non-standard residue; d: D form. Aoe = N[C@@H](CCCCCC(=O)[C@@H]1CO1)C(=O)O; dPip = O=C(O)[C@H]1CCCCN1

`O=C1N[C@@H](Cc2ccccc2)C(=O)N2CCCC[C@@H]2C(=O)N[C@@H](CCCCCC(=O)[C@@H]2CO2)C(=O)N[C@H]1Cc1ccccc1` [RF-1023-A] (cyclo([Aoe]FF[dPip])): the Cell number is 3.8 × 10^5 in experiment [1] (5 ng/ml test compound); 3.4 × 10^5 in experiment [1] (50 ng/ml test compound); 1.5 × 10^5 in experiment [1] (100 ng/ml test compound); 1.1 × 10^5 in experiment [1] (200 ng/ml test compound); 1.1 × 10^5 in experiment [1] (400 ng/ml test compound). The Percentage of increase in experiment [1] (5 ng/ml test compound) is recorded as 35%; in experiment [1] (50 ng/ml test compound) it was 29%; in experiment [1] (100 ng/ml test compound), 0%; in experiment [1] (200 ng/ml test compound), -6%; in experiment [1] (400 ng/ml test compound) it was -6%. Further, the “Concentration at which detransformation activity is shown” value (from here on “Concentration”) in experiment [2] (setting [3]) was 5 ng/mL.

As for `O=C1N[C@@H](Cc2ccccc2)C(=O)N2CCC[C@@H]2C(=O)N[C@@H](CCCCCC(=O)[C@@H]2CO2)C(=O)N[C@H]1Cc1ccccc1` [RF-1023-B] (cyclo(FF[dP][Aoe])), the “Concentration” value in experiment [2] (setting [3]) amounted to 5 ng/mL.

For `CC(=O)NCCCCCCNC(C)=O` [hexamethylene bisacetamide, reference compound], in experiment [2] (same experiment system), the “Concentration” value is 3e+06 ng/mL.
